The test system of test [1] is HREC. Put plainly: HREC proliferation, cell count. In kind it is cell-based, human. The following applies: for Proliferation Cell Count: HREC, agonists 10 μm, with NECA: CPX 20 nM, SCH 60 nM, XAC, Enprofylline, JW V108 10 μm, * p < 0.005 vs untreated; for increase in HREC number: agonist alone, 48 hr. The procedure: (§1) The subtype of adenosine receptor (A2B) that mediates the proliferative effect of adenosine on HREC was determined by the following studies. […] In contrast, neither the A2A adenosine receptor agonist CGS21680 (2-p-(2-carboxyethyl) phenethylamino-5′-N-ethylcarboxamidoadenosine) at concentrations ranging from 10 nM to 10 μM, nor the A1 adenosine receptor agonist CPA (N^6-cyclopentyladenosine) at concentrations ranging from 10 nM to 10 μM increased BrdU incorporation by HRECs. […] In contrast, neither the selective A1 adenosine receptor antagonist CPX (8-cyclopentyl-1,3-dipropylxanthine) at 20 nM, nor the selective A2A adenosine receptor antagonist SCH58261 (5-amino-7-(2-phenylethyl)-2-(2-furyl)-pyrazolo(4,3-E)-1,2,4-trizolo(1,5-c) pyrimidine) at 60 nM attenuated the stimulatory effect of NECA on BrdU incorporation by HRECs. These findings indicate that the proliferative effects of NECA are mediated by the A2B adenosine receptor in HREC in culture (Table 3).
The data for cell counts were consistent with those for BrdU incorporation. […] These compounds, like XAC, blocked the proliferative effects of NECA as measured by cell counts, supporting that the proliferative effects of NECA on HREC are mediated by the adenosine A2B receptor (Table 3).

Test [2] concerns HREC. Kind of test: BrdU incorporation (DNA synthesis) in HRECs. Format: cell-based, human. The following applies: for Proliferation BrdU Incorporation: HREC, agonists 10 μm, with NECA: CPX 20 nM, SCH 60 nM, XAC 10 μm, * p < 0.005 vs untreated. The procedure:
as §1

The test system of test [3] is HREC. Kind of test: VEGF protein in HREC after adenosine receptor agonists and antagonists. In kind it is cell-based, human. The following applies: agonists 10 μm, with NECA: CPX 20 nM, SCH 60 nM, XAC 10 μm, * p < 0.005 vs untreated.
Test [4] deals with HREC. Put plainly: VEGF mRNA in HREC after adenosine receptor agonists and antagonists. Format: cell-based, human. The following applies: agonists 10 μm, with NECA: CPX 20 nM, SCH 60 nM, XAC 10 μm, * p < 0.005 vs untreated.
The subject of test [5] is HREC. Put plainly: cAMP content of intact HRECs. Format: cell-based, human. The source says: The cAMP content of intact HRECs following treatment with adenosine receptor agonists and antagonists was next examined. […] The effect of selective A1 and A2A adenosine receptor antagonists on NECA-induced accumulation of cAMP was also examined.
Test [6] has as its system HREC. Put plainly: ERK/MAPK activation in HREC, Western blot. In kind it is cell-based, human. The following applies: for ERK activation by agonist: agonist alone; for effect on NECA-stimulated ERK activation: HREC pretreated with antagonist or inhibitor, then NECA. As for the experimental part:
HREC were serum-starved for 24 hr and pre-treated for 20 min with 1 U/mL adenosine deaminase prior to adding NECA. Activated ERK/MAPK was visualized on Western blots by enhanced chemiluminescence using EC10 monoclonal antibody;
HRECs were serum-starved for 24 hr and pre-treated with adenosine deaminase (ADA, 1 U/mL) for 20 min, incubated with the antagonists in the presence of ADA for 10 min. NECA (1 nM-10 μM, 10 min) was used to activate ERK.
In order to determine the intracellular signaling pathways activated by NECA that regulate ERK activity, we pretreated cells for 30 min with the ERK/MPAK kinase (MEK) inhibitor PD98059 or the PKA inhibitor H-89 and stimulated with NECA for 5 min.
Cells were pre-treated with both antagonists for 10 min and stimulated with increasing concentrations of NECA.
(In general: In western blotting, separated proteins are transferred to a membrane and probed.)

Test [7] has as its system HREC. Put plainly: HREC chemotaxis. Format: cell-based, human. The text has this: The role of the A2B receptor was further characterized by examining the effects of the A2B antagonists JW V108 and Enprofylline on HREC chemotaxis, capillary tube formation and signal transduction pathways following stimulation with the adenosine analogue NECA.
Test [8] concerns oxygen-induced retinal neovascularization. Kind of test: Oxygen-induced retinal neovascularization in the neonatal mouse. Format: in vivo. The following applies: daily IP 30 mg/Kg body weight; vs uninjected control. The text has this:
The potential efficacy of administering adenosine receptor antagonists to reduce retinal neovascularization brought on by ischemic insult was examined. In the neonatal mouse model of oxygen-induced retinopathy, 7-day-old mice are placed with their nursing dams in a 75% oxygen atmosphere for 5 days. Upon return to normal air, these mice develop retinal neovascularization, with peak development occurring 5 days after their return to normoxia. During this time, the animals receive by daily intaperitoneal injection a pharmacologically relevant concentration of adenosine receptor antagonist or vehicle (0.15% vol./vol. DMSO in normal saline) alone. Exemplary antagonists tested include XAC and 3-n-propylxanthine (Enprofylline), and JW V108, both at a concentration of 30 mg/Kg of body weight. […]
Individuals masked to the identity of treatment counted all cell nuclei above the inner limiting membrane for all 20 sections from each eye. […] The efficacy of treatment with a particular antagonist was then calculated as the fraction of total nuclei in antagonist or vehicle treatment over total nuclei in uninjected control. […] Whole retinas from these eyes were then flat-mounted for qualitative assessment of retinal neovascularization by fluorescence microscopy.

Test [9] deals with HREC. Kind of test: CREB phosphorylation at Ser133 in HREC, western blot. In kind it is cell-based, human. As to conditions: HREC pretreated. The source says: Phosphorylation of cAMP response element binding protein (CREB) at Ser^133 was examined following NECA stimulation in order to determine whether activation of cAMP pathways by NECA occurred independently of ERK activation. Cells were pretreated with PD98059 or H-89 and assayed for active CREB by western blot.

Structures are written as SMILES.

The results in this text go back to patent publication US20050096282A1, “Adeno-associated virus-delivered ribozyme compositions and methods for the treatment of retinal diseases” (priority 1997, published 2005).

In the case of `CCNC(=O)[C@H]1O[C@@H](n2cnc3c(N)nc(NCCc4ccc(CCC(=O)O)cc4)nc32)[C@H](O)[C@@H]1O` [CGS21680, 2-p-(2-carboxyethyl) phenethylamino-5′-N-ethylcarboxamidoadenosine], in the test with HREC [1], the “Proliferation Cell Count” value is 1.1 ± 0.03 fold change vs. untreated and the “increase in HREC number” value is “neither CGS21680 nor CPA caused an increase in cell number”. The “Proliferation BrdU Incorporation” value in the test on HREC [2] turned out to be 1.0 ± 0.08 fold change vs. untreated. Also, the “VEGF Protein” value with HREC [3] is given as 1.3 ± 0.20 fold change vs. untreated. Besides, the “VEGF MRNA” value with HREC [4] turned out to be 0.8 ± 0.37 fold change vs. untreated. Besides, the “CAMP Content” value in the test on HREC [5] (HREC, agonists 10 μm, with NECA: CPX 20 nM, SCH 60 nM, XAC 10 μm, * p < 0.005 vs untreated) turned out to be 1.1 ± 1.02 fold change vs. untreated. The “effect on cAMP content of HREC” value in the test on HREC [5] (agonist alone, concentrations up to 100 μM) was “no significant effect”. Besides, the “ERK activation by agonist” value in the test on HREC [6] (HREC) was “did not activate ERK”. In addition, the “basal ERK activation” value in the test on HREC [6] (HREC, CGS 1-10 μM, H-89 30 min pretreatment) is listed as “reduced the basal ERK levels”.
For `OC[C@H]1O[C@@H](n2cnc3c(NC4CCCC4)ncnc32)[C@H](O)[C@@H]1O` [CPA, N^6-cyclopentyladenosine], in the test on HREC [1], the “Proliferation Cell Count” value was 0.9 ± 0.04 fold change vs. untreated and the “increase in HREC number” value is given as “neither CGS21680 nor CPA caused an increase in cell number”. For the same compound, the “Proliferation BrdU Incorporation” value with HREC [2] is given as 0.8 ± 0.06 fold change vs. untreated. For the same compound, the “VEGF Protein” value with HREC [3] is reported as 1.1 ± 0.27 fold change vs. untreated. The “VEGF MRNA” value in the test on HREC [4] was 1.1 ± 0.22 fold change vs. untreated. In addition, the “ERK activation by agonist” value with HREC [6] (HREC) is given as “capable of stimulating ERK”.
Take `CCCn1c(=O)[nH]c(=O)c2[nH]cnc21` [Enprofylline, 3-n-propylxanthine]: the “effect on NECA-stimulated ERK activation” value with HREC [6] is listed as “completely abolished ERK activation”. Also, the “inhibition of NECA-induced HREC chemotaxis” value in the test on HREC [7] was “inhibited”. The “inhibition of oxygen-induced retinal neovascularization” value in [8] came to 70%.
In the case of `CCCn1c(=O)c2[nH]c(-c3ccc(OCC(=O)NCCN)cc3)nc2n(CCC)c1=O` [XAC, xanthine amine congener], the “inhibition of increase in cell number induced by NECA” value with HREC [1] (10 μM NECA) is listed as “significantly inhibited”. Further, in the test with HREC [2] (XAC 10 μM, CPX 20 nM, SCH58261 60 nM), the “attenuation of NECA-stimulated BrdU incorporation by HRECs” value is on record as “completely prevented”. Further, the “inhibition of NECA-induced increase in cAMP content in HRECs” value in the test on HREC [5] (NECA 10 μM) is “completely blocked”. Moreover, the “effect on NECA-stimulated ERK activation” value in the test on HREC [6] is “decreased ERK activation by high concentrations of NECA”. In addition, in the test with HREC [9], the “CREB activation (phosphorylation) following NECA stimulation” value is on record as “blocked CREB phosphorylation”. Also, in test [8], the “inhibition of oxygen-induced retinal neovascularization” value worked out at 54%.
